Assay results published in patent publication US20040086569A1, “Active agent delivery systems, medical devices, and methods” (Medtronic, Inc., priority 2002, published 2004).

Experiments:
[1] = Dissolution of coumarin from PL75D/TP blend cap-coated shims in PBS; type: physicochemical; conditions: FIG. 19
Protocol: P[…] was dried at 70° C. at reduced pressure overnight. The dried pellets were compressed between two plates that were pre-heated to 230° C. and maintained for about 5 minutes. After the sample was cooled down to room temperature, it was placed in a vial filled with THF and stirred until dissolved (by visual observation). […] Coumarin was also dissolved in THF. The concentrations of all the solutions were about 1 wt-%. TL solution and coumarin solution were mixed at a weigh ratio of 1:1. This mixture is the base coating solution of a reservoir system. TP solution and P[…] solution were mixed at various weight ratios to make five different mixtures with the weight ratios of TP to P[…] being 100:0, 75:25, 50:50, 25:75, and 0:100. These solutions are referred to herein as cap coating solutions of the reservoir system. Dissolution samples were prepared with stainless steel (316L) shims (12.1×38.1 mm^2) that were cleaned by rinsing with THF. The cleaned shims were coated with the […] solution. The coated shims were allowed to dry overnight under nitrogen. […] This thermal treatment led to formation of a primer on the surface of the shims that promoted their adhesion with polymer/active agent layers. […] The concentration of coumarin in all these solutions was measured with a liquid chromatography (HP 1090) that was equipped with a UV detector. […]

[2] = Merck Index; cited from earlier work

## O=c1ccc2ccccc2o1 [coumarin]
[1]; 100% PL75D versus 100% TP cap coat
  Release rate, pure cap-coat polymers compared: release much faster from a 100% PL75D coated shim than that from 100% TP coated shim
[1]; cap coat blends
  Release rates from the PL75D/TP blends: between that from the two pure polymers
[2]
  Volume of cold water that dissolves one gram: 400 mL
